# Reference: article PMC8757604 (Journal of Enzyme Inhibition and Medicinal Chemistry, 2022)
# “Also recorded” adds a separate entry of the source.
# Key:
# [1] = target: T1, α-amylase from hog pancreas (Sus scrofa, UniProt P00690); test: α-Amylase inhibition assay (starch/DNS, absorbance 540 nm)
# T1 sequence (P00690 16-511): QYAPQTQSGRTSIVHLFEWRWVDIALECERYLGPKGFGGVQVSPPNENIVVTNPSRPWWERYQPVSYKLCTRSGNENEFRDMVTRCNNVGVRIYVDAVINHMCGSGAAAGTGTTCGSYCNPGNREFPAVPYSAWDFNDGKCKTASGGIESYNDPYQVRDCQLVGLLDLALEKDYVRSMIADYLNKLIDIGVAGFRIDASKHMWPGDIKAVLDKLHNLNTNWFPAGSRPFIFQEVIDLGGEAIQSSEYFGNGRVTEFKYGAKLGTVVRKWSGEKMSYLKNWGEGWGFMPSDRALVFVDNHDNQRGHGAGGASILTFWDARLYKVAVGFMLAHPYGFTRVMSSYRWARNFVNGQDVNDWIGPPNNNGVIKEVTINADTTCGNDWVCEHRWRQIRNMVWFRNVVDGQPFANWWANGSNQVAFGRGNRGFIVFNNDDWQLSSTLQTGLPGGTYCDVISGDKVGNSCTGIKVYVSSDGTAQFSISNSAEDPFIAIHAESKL
# [2] = target: T2, α-Glucosidase from Saccharomyces cerevisiae (Saccharomyces cerevisiae, UniProt P53341); test: biochemical; format: biochemical; conditions: for IC50: mean ± SD, enzyme 0.1 U/mL, p-NPG 0.25 mM, pH 6.8, 37 °C, read-out: α-Glucosidase inhibition (IC50)
# 3T3-L1 cells = test: Cells cytotoxicity assay (MTT), 3T3-L1; format: cell-based; conditions: 24 h treatment, under concentration of 100 µM
# Description: (§1) 3T3–L1 or HepG2 cells were cultured in Dulbecco’s modified Eagle medium (DMEM) with 10% foetal bovine serum (FBS), 100 IU/mL penicillin and 100 IU/mL streptomycin at 37 °C under 5% CO2. 3T3-L1 cells (2 × 10^3) or HepG2 cells ([…]) were plated onto 96-well plate ([…]) and incubated for 24 h. After treated with compound (3a or 3f) for 24 h, the cells were added […] (0.5 mg/mL) and incubated for 4 h. Then […] was added to dissolve the blue insoluble MTT formazan. Finally, the absorbance was measured at 570 nm using a microplate reader. Each sample was performed in triplicate.
# HepG2 cells = test: Cells cytotoxicity assay (MTT), HepG2; format: cell-based; conditions: 24 h treatment, under concentration of 100 µM
# Description: as §1
# [3] = target: T1, α-amylase from hog pancreas; test: α-Amylase inhibition kinetics (V vs [E], Lineweaver–Burk plots); format: biochemical; parameters: α-amylase from hog pancreas (EC3.2.1.1); from tissue; host or cells: hog pancreas; conditions: 3f 0-15.0 μM
# Text: Compound 3f with the strongest inhibitory activity against α-amylase was selected as the representative compound for the enzyme inhibitory kinetic analysis.
# The enzyme inhibition kinetics analysis was investigated. The operation method was similar with the assay of α-glucosidase, except the concentrations of test compound, enzyme and substrate.
# [4] = target: T2, α-Glucosidase from Saccharomyces cerevisiae; test: α-Glucosidase inhibition kinetics (V vs [E], Lineweaver–Burk plots); format: biochemical; conditions: 3a 0-0.5 μM
# Description: To probe into the inhibition mechanism of OA derivatives (3a–3t) against α-glucosidase, compound 3a with the strongest inhibitory activity was selected as the representative compound for the enzyme inhibitory kinetic analysis. […] The inhibition kinetic behaviours were investigated using the Lineweaver–Burk plots.
# The enzyme inhibition kinetics analysis was investigated using previously reported method with minor modifications[25]^,[26]. In brief, inhibitory effect was determined from the plots of absorbance change of OA derivatives at different concentrations with enzyme at different concentrations. The inhibition type was measured based on the Lineweaver–Burk plot of absorbance change of OA derivatives at different concentrations with p-NPG substrate at different concentrations.
# T2 sequence (P53341 whole entry): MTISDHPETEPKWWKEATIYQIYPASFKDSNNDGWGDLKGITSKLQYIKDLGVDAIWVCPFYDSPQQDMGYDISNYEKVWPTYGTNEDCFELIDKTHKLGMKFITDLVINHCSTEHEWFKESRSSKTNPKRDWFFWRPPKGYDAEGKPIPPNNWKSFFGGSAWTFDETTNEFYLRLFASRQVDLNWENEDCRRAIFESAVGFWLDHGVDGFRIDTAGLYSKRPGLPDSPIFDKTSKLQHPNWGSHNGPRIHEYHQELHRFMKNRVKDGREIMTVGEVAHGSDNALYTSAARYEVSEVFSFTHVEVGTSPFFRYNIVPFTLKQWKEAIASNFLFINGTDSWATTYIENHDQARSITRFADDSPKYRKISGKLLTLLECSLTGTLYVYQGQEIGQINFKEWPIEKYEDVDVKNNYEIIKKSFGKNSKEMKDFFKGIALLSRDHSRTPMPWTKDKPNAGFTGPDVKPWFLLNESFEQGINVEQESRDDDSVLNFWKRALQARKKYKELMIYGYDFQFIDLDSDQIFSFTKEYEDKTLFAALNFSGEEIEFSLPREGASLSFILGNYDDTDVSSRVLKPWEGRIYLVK
SMILES,IC50 [1],IC50 [2],other results
CC1(C)CC[C@]2(C(=O)O)CC[C@]3(C)C(=CCC4[C@@]5(C)CC/C(=N\OC(=O)c6ccccc6)C(C)(C)C5CC[C@]43C)C2C1 (stereo partly shown) [Compound 3k],25.6 ± 1.66 µM,0.67 ± 0.04 µM,
Cc1ccc(/C=C/C(=O)O/N=C2\CC[C@@]3(C)C(CC[C@]4(C)C3CC=C3C5CC(C)(C)CC[C@]5(C(=O)O)CC[C@]34C)C2(C)C)cc1 (stereo partly shown) [Compound 3b],15.3 ± 1.41 µM,0.68 ± 0.03 µM,
CC1(C)CC[C@]2(C(=O)O)CC[C@]3(C)C(=CCC4[C@@]5(C)CC/C(=N\OC(=O)c6ccc(F)cc6)C(C)(C)C5CC[C@]43C)C2C1 (stereo partly shown) [Compound 3n],70.2 ± 2.53 µM,1.96 ± 0.25 µM,
CC1(C)CC[C@]2(C(=O)O)CC[C@]3(C)C(=CCC4[C@@]5(C)CC/C(=N\OC(=O)/C=C/c6ccc(Cl)cc6)C(C)(C)C5CC[C@]43C)C2C1 (stereo partly shown) [Compound 3e],5.64 ± 1.29 µM,0.95 ± 0.06 µM,
Cc1ccc(C(=O)O/N=C2\CC[C@@]3(C)C(CC[C@]4(C)C3CC=C3C5CC(C)(C)CC[C@]5(C(=O)O)CC[C@]34C)C2(C)C)cc1 (stereo partly shown) [Compound 3l],55.3 ± 2.39 µM,0.99 ± 0.05 µM,
CC1(C)CC[C@]2(C(=O)O)CC[C@]3(C)C(=CCC4[C@@]5(C)CC/C(=N\OC(=O)/C=C/c6ccc([N+](=O)[O-])cc6)C(C)(C)C5CC[C@]43C)C2C1 (stereo partly shown) [Compound 3h],18.3 ± 1.92 µM,1.36 ± 0.03 µM,
CC1(C)CC[C@]2(C(=O)O)CC[C@]3(C)C(=CCC4[C@@]5(C)CC/C(=N\OC(=O)c6ccc([N+](=O)[O-])cc6)C(C)(C)C5CC[C@]43C)C2C1 (stereo partly shown) [Compound 3r],70.7 ± 1.25 µM,1.41 ± 0.12 µM,
CC1(C)CC[C@]2(C(=O)O)CC[C@]3(C)C(=CCC4[C@@]5(C)CC/C(=N\OC(=O)c6ccc(Cl)cc6)C(C)(C)C5CC[C@]43C)C2C1 (stereo partly shown) [Compound 3o],26.3 ± 1.61 µM,1.74 ± 0.14 µM,
CC1(C)CC[C@]2(C(=O)O)CC[C@]3(C)C(=CCC4[C@@]5(C)CC/C(=N\OC(=O)/C=C/c6ccc(O)cc6)C(C)(C)C5CC[C@]43C)C2C1 (stereo partly shown) [Compound 3j],70.8 ± 2.31 µM,0.82 ± 0.09 µM,
CC1(C)CC[C@]2(C(=O)O)CC[C@]3(C)C(=CCC4[C@@]5(C)CC/C(=N\OC(=O)/C=C/c6ccc(F)cc6)C(C)(C)C5CC[C@]43C)C2C1 (stereo partly shown) [Compound 3d],17.5 ± 1.52 µM,1.45 ± 0.12 µM,
COc1ccc(C(=O)O/N=C2\CC[C@@]3(C)C(CC[C@]4(C)C3CC=C3C5CC(C)(C)CC[C@]5(C(=O)O)CC[C@]34C)C2(C)C)cc1 (stereo partly shown) [Compound 3m],35.5 ± 2.41 µM,1.1 ± 0.1 µM,
CC1(C)CC[C@]2(C(=O)O)CC[C@]3(C)C(=CCC4[C@@]5(C)CC/C(=N\OC(=O)/C=C/c6ccc(C(F)(F)F)cc6)C(C)(C)C5CC[C@]43C)C2C1 (stereo partly shown) [Compound 3g],12.6 ± 2.37 µM,3.13 ± 0.13 µM,
COc1ccc(/C=C/C(=O)O/N=C2\CC[C@@]3(C)C(CC[C@]4(C)C3CC=C3C5CC(C)(C)CC[C@]5(C(=O)O)CC[C@]34C)C2(C)C)cc1 (stereo partly shown) [Compound 3c],25.4 ± 1.17 µM,0.89 ± 0.07 µM,
CC1(C)CCC2(C(=O)O)CCC3(C)C(=CCC4C5(C)CCC(=NOC(=O)C=Cc6ccc(Br)cc6)C(C)(C)C5CCC43C)C2C1 (stereo not shown) [Compound 3f],3.8 ± 0.65 µM,1.28 ± 0.03 µM,"Cytotoxicity to 3T3-L1 cells (3T3-L1 cells): non-cytotoxic; α-amylase inhibition, times better than OA ([1]; ratio of IC50 vs OA): ~25 times; α-amylase inhibition, times better than acarbose ([1]; ratio of IC50 vs acarbose): ~26 times; Cytotoxicity to HepG2 cells (HepG2 cells): non-cytotoxic; Inhibition type towards α-amylase ([3]; Lineweaver–Burk plots): mixed types; also recorded: mixed-type inhibitor; Reversibility of α-amylase inhibition ([3]; plots of V vs α-amylase concentration): reversible"
CC1(C)CCC2(C(=O)O)CCC3(C)C(=CCC4C5(C)CCC(=NOC(=O)C=Cc6ccccc6)C(C)(C)C5CCC43C)C2C1 (stereo not shown) [Compound 3a],7.86 ± 1.24 µM,0.35 ± 0.06 µM,"Cytotoxicity to 3T3-L1 cells (3T3-L1 cells): non-cytotoxic; Inhibition type towards α-glucosidase ([4]; Lineweaver–Burk plots): mixed-type inhibitor; also recorded: mixed types; Reversibility of α-glucosidase inhibition ([4]; plots of V vs [E]): reversible; α-glucosidase inhibition, times stronger than OA ([2]; ratio of IC50 vs OA): ~11 times; α-glucosidase inhibition, times stronger than acarbose ([2]; ratio of IC50 vs acarbose): ~1900 times; Cytotoxicity to HepG2 cells (HepG2 cells): non-cytotoxic"
CC1(C)CC[C@]2(C(=O)O)CC[C@]3(C)C(=CCC4[C@@]5(C)CC/C(=N\OC(=O)c6ccc(O)cc6)C(C)(C)C5CC[C@]43C)C2C1 (stereo partly shown) [Compound 3t],152 ± 4.24 µM,0.91 ± 0.04 µM,
CC1(C)CC[C@]2(C(=O)O)CC[C@]3(C)C(=CCC4[C@@]5(C)CC/C(=N\OC(=O)c6ccc(Br)cc6)C(C)(C)C5CC[C@]43C)C2C1 (stereo partly shown) [Compound 3p],15.9 ± 1.75 µM,1.81 ± 0.05 µM,
CC1(C)CC[C@]2(C(=O)O)CC[C@]3(C)C(=CCC4[C@@]5(C)CC/C(=N\OC(=O)c6ccc7c(c6)OCO7)C(C)(C)C5CC[C@]43C)C2C1 (stereo partly shown) [Compound 3s],18.7 ± 1.29 µM,1.37 ± 0.06 µM,
CC1(C)CC[C@]2(C(=O)O)CC[C@]3(C)C(=CCC4[C@@]5(C)CC/C(=N\OC(=O)c6ccc(C(F)(F)F)cc6)C(C)(C)C5CC[C@]43C)C2C1 (stereo partly shown) [Compound 3q],33.6 ± 1.93 µM,3.43 ± 0.17 µM,
CC1(C)CC[C@]2(C(=O)O)CC[C@]3(C)C(=CCC4[C@@]5(C)CC/C(=N\OC(=O)/C=C/c6ccc7c(c6)OCO7)C(C)(C)C5CC[C@]43C)C2C1 (stereo partly shown) [Compound 3i],17.9 ± 1.21 µM,0.71 ± 0.02 µM,
